Measurements as given in US20150217006A1, “AL-F-18-LABELED, AL-F-19-LABELED AND GA-68-LABELED GASTRIN-RELEASING PEPTIDE RECEPTOR (GRPR)-ANTAGONISTS FOR IMAGING OF PROSTATE CANCER” (Immunomedics, Inc., priority 2014, published 2015).
Like-named read-outs stand apart in the source and are kept apart here. One block for each molecule: values may come before it. Residues, ends and D or L forms follow the SMILES beside them.

Tests used:
[1] = test system: GRPR-positive PC-3 tumors; conditions: mouse, in vivo
Experimental: (§1) 2-3 weeks after inoculation, when tumor size averaged 200 mm^3, mice were injected intravenously with 5-10 MBq of radiolabeled peptide (200 pmol, 200 μL). To determine the receptor-mediated localization of the radiolabeled peptides, additional animals were co-injected with an excess (20 nmol) of unlabeled peptide. Mice were euthanized 1 h or 2 h post injection (p.i.) by CO2/O2 asphyxiation. Mice were first scanned in prone position on a small animal PET/CT scanner (Inveon; Siemens Preclinical Solutions). PET emission scans were acquired for 30-60 min, followed by a CT scan (spatial resolution 113.15 μm; 80 kV; and 500 μA). Scans were reconstructed using Inveon Acquisition Workplace software (version 1.5; Siemens Preclinical Solutions), using a 3-dimensional ordered-subset expectation maximization/maximization a posteriori algorithm with the following parameters: matrix, 256×256×161; pixel size, 0.40×0.40×0.796 mm; and β-value, 1.5, with uniform variance and FastMAP. After scanning, blood, tumor, and relevant organs and tissues were collected, weighed and counted in a γ-counter. The percentage injected dose per gram (% ID/g) was determined for each tissue sample.
(§2) Statistical analysis was performed using GraphPad Prism version 5.01 (San Diego, Calif., USA). […] Statistical analysis on biodistribution data was performed using a 1-way ANOVA with a Bonferroni post-hoc test, and the level of significance was set at P less than 0.05.

[2] = test system: GRPR-positive PC-3 tumors; test: Small-animal PET/CT and biodistribution in mice bearing s.c. PC-3 xenografts; conditions: for tumor uptake after co-injection of excess unlabeled peptide (GRPR-specificity): co-injection of 100-fold excess of unlabeled JMV4168 or JMV5132
Experimental: as §1, §2

[3] = molecular target: T1, PC-3 cells (gastrin-releasing peptide receptor) (Homo sapiens, UniProt P30550); test: Blocking of 125I-Bombesin binding to PC-3 cells; conditions: 56 to 0.44 nM
T1 construct: 3×10^6 PC-3 cells were exposed to a constant amount (˜50,000 cpms) of ^125I-Bombesin; endogenous in cells; host or cells: PC-3 cells
T1 sequence (P30550 whole entry): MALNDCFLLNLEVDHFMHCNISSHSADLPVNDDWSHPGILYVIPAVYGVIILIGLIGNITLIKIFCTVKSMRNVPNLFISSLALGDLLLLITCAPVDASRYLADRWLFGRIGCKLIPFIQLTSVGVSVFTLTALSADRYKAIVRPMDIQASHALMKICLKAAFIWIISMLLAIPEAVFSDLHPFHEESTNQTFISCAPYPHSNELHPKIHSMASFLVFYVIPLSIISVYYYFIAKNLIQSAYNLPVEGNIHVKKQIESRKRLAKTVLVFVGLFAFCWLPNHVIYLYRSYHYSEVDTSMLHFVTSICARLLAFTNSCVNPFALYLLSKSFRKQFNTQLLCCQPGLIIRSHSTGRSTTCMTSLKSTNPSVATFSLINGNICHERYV
Experimental: A NOTA-conjugated bombesin derivative (IMP468) was prepared as described above. […] Our initial experiment was to determine if IMP468 could specifically block bombesin from binding to PC-3 cells. We used IMP333 as a non-specific control. […] A range of 56 to 0.44 nM was used as our inhibitory concentrations.
This experiment was repeated using a commercially available BBN peptide.

[4] = Small-animal PET/CT and biodistribution in mice bearing s.c. PC-3 xenografts; conditions: male, nude BALB/c, mouse, iv, 200 pmol, total radioactivity, 200 pmol
Experimental: as §1, §2

[5] = Octanol/water partition coefficient; assay type: physicochemical; conditions: pH 7.4, octanol / PBS pH 7.4, n=3; read-out: log P octanol/water
Experimental: Octanol/Water Partition Coefficient The radiolabeled peptide (1 MBq) was diluted in 500 μL phosphate-buffered saline (pH 7.4) and mixed vigorously with 500 μL octanol for 2 min using a vortex mixer. The two layers were separated by centrifugation (1000 rpm, 5 min).

in vivo = conditions: male, nude BALB/c, mouse, iv, 200 pmol, total radioactivity, uptake in PC-3 tumors
Experimental: as §1, §2

[6] = male, nude BALB/c, iv, 200 pmol, 2 h

remaining in blood [1, 6]: 0.05±0.01 % ID/g
uptake in PC-3 tumors [1, 6]: 5.30±0.98 % ID/g
Compound: CC(C)C[C@H](NC(=O)C[C@H](O)[C@H](CC(C)C)NC(=O)[C@H](Cc1c[nH]cn1)NC(=O)CNC(=O)[C@@H](NC(=O)[C@H](C)NC(=O)[C@H](Cc1c[nH]c2ccccc12)NC(=O)[C@H](CCC(N)=O)NC(=O)[C@@H](Cc1ccccc1)NC(=O)CCNC(=O)CCNC(=O)Cc1ccc(CN2CCN(CC(=O)O)CCN(CC(=O)O)CC2)cc1)C(C)C)C(N)=O [Al^18F-JMV5132]
tumor uptake after co-injection of excess unlabeled peptide (GRPR-specificity) [2]: significantly reduced

Compound: CSCC[C@H](NC(=O)[C@H](CC(C)C)NC(=O)[C@H](Cc1c[nH]cn1)NC(=O)CNC(=O)[C@@H](NC(=O)[C@H](C)NC(=O)[C@H](Cc1c[nH]c2ccccc12)NC(=O)[C@@H](NC(=O)[C@H](Cc1c[nH]c2ccccc12)NC(=O)[C@H](CCC(N)=O)NC(=O)CCCCCCCNC(=O)CN1CCN(CC(=O)O)CCN(CC(=O)O)CC1)C(C)C)C(C)C)C(N)=O [IMP468] (HELM PEPTIDE1{[O=C(O)CN1CCN(CC(=O)O)CCN(CC(=O)[*:2])CC1].[O=C(CCCCCCCN[*:1])[*:2]].Q.W.V.W.A.V.G.H.L.M.[am]}$$$$V2.0)
block the binding of 125I-BBN [3]: could block

pancreas uptake decreased by a factor ([2]; from 1 h to 2 h p.i.): 6.1
clearance / excretion route ([2]; mice with s.c. PC-3 xenografts): exclusively via the kidney
tissue uptake at 2 h ([4]; PC-3 tumor, uptake in PC-3 tumors, 2 h after injection, i.v.): 5.96 ± 1.39 %ID/g
tissue uptake at 2 h ([4]; blood, remaining in blood, 2 h p.i.): 0.09 ± 0.04 %ID/g
logP [5]: -2.53 ± 0.04
Compound: CC(C)C[C@H](NC(=O)C[C@H](O)[C@H](CC(C)C)NC(=O)[C@H](Cc1c[nH]cn1)NC(=O)CNC(=O)[C@@H](NC(=O)[C@H](C)NC(=O)[C@H](Cc1c[nH]c2ccccc12)NC(=O)[C@H](CCC(N)=O)NC(=O)[C@@H](Cc1ccccc1)NC(=O)CCNC(=O)CCNC(=O)CN1CCN(CC(=O)O)CCN(CC(=O)O)CCN(CC(=O)O)CC1)C(C)C)C(N)=O [^68Ga-JMV4168, metal not drawn]

remaining in blood [1, 6]: 0.19±0.13 % ID/g
clearance / excretion route [1]: partially hepatobiliary
tissue uptake at 2 h (in vivo): 5.24 ± 0.29 %ID/g
Compound: CC(C)C[C@H](NC(=O)C[C@H](O)[C@H](CC(C)C)NC(=O)[C@H](Cc1c[nH]cn1)NC(=O)CNC(=O)[C@@H](NC(=O)[C@H](C)NC(=O)[C@H](Cc1c[nH]c2ccccc12)NC(=O)[C@H](CCC(N)=O)NC(=O)[C@@H](Cc1ccccc1)NC(=O)CCNC(=O)CCNC(=O)Cc1ccc(CN2CCN(CC(=O)O)CCN(CC(=O)O)CC2)cc1)C(C)C)C(N)=O [^68Ga-JMV5132, metal not drawn]
tumor uptake after co-injection of excess unlabeled peptide (GRPR-specificity) [2]: significantly reduced
